From US5418160A, “Cloned cell line expressing rat β3A adrenergic receptor” (The United States as represented by the Secretary of the …, priority 1991, dated 1995)
Where two headings read alike, the source gives them in different places. Each block holds one compound with its values, some of them ahead of it.

Legend:
brown adipocytes = conditions: Arch et al., read-out: EC50 for increases in lipolysis; cited from earlier work
β1 -adrenergic receptors = conditions: read-out: KD for [125I]-ICYP binding to β1-adrenergic receptors; cited from earlier work
β2 -adrenergic receptors = conditions: read-out: KD for [125I]-ICYP binding to β2-adrenergic receptors; cited from earlier work
β3 -adrenergic receptor = conditions: read-out: KD reported for [125I]-ICYP binding to the β3-adrenergic receptor; Emorine et al.; cited from earlier work
[1] = target: T1, fat cell β receptor (β3A -adrenergic receptor) (Rattus norvegicus, UniProt P26255); assay: Inhibition of BRL 37344-induced cAMP accumulation in transfected CHO cells; assay type: cell-based; conditions: read-out: inhibition of BRL 37344-induced cAMP accumulation
T1 construct: expressed in transfected cells
From the text: Using a protocol for cotransfection of CHO cells (a 1.5 kb fragment was excised from pBluescript using Saci (present in the multiple cloning site of the vector) and BamHI and inserted into the Sac/BamH/sites of PSVL (Pharmacie). CHO-K1 cells were cotransfected with pSVL and pMSVneo (neomycin resistance plasmid) F. Z. Chung, C. D. Wang, P. C. Potter, J. C. Venter and C. M. Fraser, J. Biol. Chem. 263, 4052 (1988) using the CaPO4 precipitation technique. Stable transfectants were obtained by growth of the cells in culture medium containing Geneticin (500 μg/ml); colonies derived from single cells were isolated and expanded.

T1 sequence (P26255 whole entry): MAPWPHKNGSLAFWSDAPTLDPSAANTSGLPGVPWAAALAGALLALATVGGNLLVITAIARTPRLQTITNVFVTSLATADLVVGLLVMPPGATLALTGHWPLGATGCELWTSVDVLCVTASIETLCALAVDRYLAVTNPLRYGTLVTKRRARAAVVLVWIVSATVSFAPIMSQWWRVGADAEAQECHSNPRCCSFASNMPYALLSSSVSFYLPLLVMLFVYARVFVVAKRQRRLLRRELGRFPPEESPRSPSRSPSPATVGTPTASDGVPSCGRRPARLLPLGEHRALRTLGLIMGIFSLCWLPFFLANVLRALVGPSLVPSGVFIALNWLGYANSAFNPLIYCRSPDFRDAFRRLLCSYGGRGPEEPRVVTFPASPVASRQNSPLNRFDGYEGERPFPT

Compound: CC(Cc1ccc(OCC(=O)O)cc1)NCC(O)c1cccc(Cl)c1 (centres unmarked) [BRL 37344]
EC50 (brown adipocytes): 1.7 nM

Compound: CC(C)(C)NCC(O)COc1cccc2[nH]c(C#N)c([125I])c12 (centres unmarked) [[^125 1]-ICYP, [^125 1]-iodocyanopindolol]
Kd (β1 -adrenergic receptors): 0.011 nM | Kd (β2 -adrenergic receptors): 0.03 nM | Kd (β3 -adrenergic receptor): 0.5 nM

inhibition at 100 µM ([1]; antagonist at 10^-4 M, transfected CHO cells): 52%
Compound: C=CCc1ccccc1OCC(O)CNC(C)C (centres unmarked) [alprenolol]

Compound: CC(C)NCC(O)COc1ccc(CC(N)=O)cc1 (centres unmarked) [atenolol]
inhibition at 100 µM ([1]; CHO): 30%

Compound: CC(C)NCC(O)c1ccc(O)c(O)c1 (centres unmarked) [isoproterenol]
EC50 (brown adipocytes): 8 nM

Compound: COCCc1ccc(OCC(O)CNC(C)C)cc1 (centres unmarked) [metoprolol]
inhibition at 100 µM ([1]; CHO): 70%
